From patent US8163924B2, “Process for preparing a leukotriene antagonist and an intermediate thereof” (Moehs Ibérica, S.L., priority 2007, dated 2012)
Structures can show the parent of a compound that is named as a salt.

Assay: Solubility of dicyclohexylamine salts: amounts of solvents needed to dissolve each compound at reflux
Assay type: physicochemical
Details: amounts approximate, same quantity of each compound
Source text: In particular, the amounts of solvents needed to dissolve each compound at reflux are provided.
The amounts of solvents needed to dissolve the salts are approximate.

SMILES	amount of solvent needed to dissolve the compound at reflux (acetone) [volumes acetone]	amount of solvent needed to dissolve the compound at reflux (isopropyl acetate) [volumes isopropyl acetate]
CC(=O)c1ccccc1CC[C@@H](SCC1(CC(=O)O)CC1)c1cccc(/C=C/c2ccc3ccc(Cl)cc3n2)c1 [IIa, (R)-(E)-1-(((1-(3-(2-(7-chloro-2-quinolinyl)ethenyl)phenyl)-3-(2-acetylphenyl)propyl)thio)methyl)cyclopropane acetic acid dicyclohexylamine salt]	100	45
COC(=O)c1ccccc1CC[C@@H](SCC1(CC(=O)O)CC1)c1cccc(/C=C/c2ccc3ccc(Cl)cc3n2)c1 [R = —CO2CH3]	50	20
